Results as given in patent publication US12036226B2, “Methods of treating subjects having diabetes with chronic kidney disease” (Poxel SA, priority 2018, dated 2024).
Where two headings read alike, the source gives them in different places.

Columns and labels:
[1] = system: acute renal failure (ARF) rat model; details: for plasma glucose: normal rats
Protocol: The creatinine level, correlated with the degree of the renal function failure, was tested for each rat 7 days after the first injection of gentamicin. […] The creatinine level was determined on the Monarch Chemistry Systems using the IL Test creatinine in rat plasma samples. This monochromatic analysis is based on the formation of a red colored complex between creatinine and picric acid under alkaline conditions.

[2] = Pharmacokinetics of imeglimin (dose proportionality, excretion pathway); type: in vivo
[3] = system: Japanese type 2 diabetic subjects; assay: Phase 2b dose-ranging placebo-controlled 24-week study in Japanese type 2 diabetic subjects; type: in vivo, human; details: for FPG LSM difference vs baseline / FPG LSM difference vs placebo: 24 weeks, FAS; for responder rate (subjects reaching HbA1c≤7%): end of 24-week treatment (placebo 8.2%)
Protocol: A Dose-Ranging, Randomized, Double-Blind, Placebo-Controlled, Parallel-Group, Multi-Center Study of the Efficacy and Safety of 3 Doses of Imeglimin after 24 Weeks of Treatment in Japanese Type 2 Diabetic Subjects
In this study, a total of 299 subjects with T2DM received either imeglimin at one of the 3 doses (500, 1000 and 1500 mg bid) or placebo. The primary objective of this study was to assess the dose-response of imeglimin at 3 doses (500, 1000 and 1500 mg bid) compared to placebo in male and female subjects with T2DM after 24 weeks of treatment, using glycosylated hemoglobin (HbA1c) as the primary endpoint. Inclusion Criteria: subjects have an eGFR of ≥50 mL/min/1.73 m^2 at screening and >=45 at pre randomization visit. A total of 299 subjects were randomized 1:1:1:1 to one of the 4 study arms, with 268 subjects completing the study.
Percentage of responders was defined as the percentage of subjects who reached a value of HbA1c≤7% at the end of the 24-week double-blind treatment period. The analysis was performed using the FAS for subjects with an HbA1c value greater than 7.0% at baseline.
In a post-hoc analysis, efficacy and safety/tolerability profile was investigated in patients depending on their renal function (CKD 1=eGFR≥90 mL/min/1.73 m^2, CKD2=60≤eGFR<90 mL/min/1.73 m^2, CKD3A=45≤eGFR<60 mL/min/1.73 m^2). 299 patients were randomized 74% of the patients had CKD2, 14% had CKD1, and 12% CKD3A, respectively. The primary endpoint was met with a statistically significant dose-dependent placebo subtracted decrease in HbA1c at the 3 doses with the 2 top doses of 1,000 and 1,500 mg bid reaching an HbA1c decrease of −0.94% and −1.00% respectively (Table 5). […] There were no major differences in the incidence of AE, SAE or AE leading to treatment discontinuation.

[4] = CKD Stage 2 (eGFR = 60-90 mL/min/1.73 m^2), 500 mg BID
[5] = CKD Stage 2 (eGFR = 60-90 mL/min/1.73 m^2), 500 mg BID, N 56
[6] = CKD Stage 2 (eGFR = 60-90 mL/min/1.73 m^2), 1000 mg BID
[7] = CKD Stage 2 (eGFR = 60-90 mL/min/1.73 m^2), 1000 mg BID, N 57
[8] = CKD Stage 2 (eGFR = 60-90 mL/min/1.73 m^2), 1500 mg BID
[9] = CKD Stage 2 (eGFR = 60-90 mL/min/1.73 m^2), 1500 mg BID, N 51
[10] = CKD Stage 3a (eGFR < 60 mL/min/1.73 m^2), 500 mg BID
[11] = CKD Stage 3a (eGFR < 60 mL/min/1.73 m^2), 500 mg BID, N 10
[12] = CKD Stage 3a (eGFR < 60 mL/min/1.73 m^2), 1000 mg BID
[13] = CKD Stage 3a (eGFR < 60 mL/min/1.73 m^2), 1000 mg BID, N 7
[14] = CKD Stage 3a (eGFR < 60 mL/min/1.73 m^2), 1500 mg BID
[15] = CKD Stage 3a (eGFR < 60 mL/min/1.73 m^2), 1500 mg BID, N 8
[16] = Normal eGFR (eGFR > 90 mL/min/1.73 m^2), 500 mg BID
[17] = Normal eGFR (eGFR > 90 mL/min/1.73 m^2), 500 mg BID, N 9
[18] = Normal eGFR (eGFR > 90 mL/min/1.73 m^2), 1000 mg BID
[19] = Normal eGFR (eGFR > 90 mL/min/1.73 m^2), 1000 mg BID, N 9
[20] = Normal eGFR (eGFR > 90 mL/min/1.73 m^2), 1500 mg BID
[21] = Normal eGFR (eGFR > 90 mL/min/1.73 m^2), 1500 mg BID, N 14

For C[C@H]1N=C(N(C)C)N=C(N)N1 [imeglimin, (6R)—N^2, N^2,6-trimethyl-3,6-dihydro-1,3,5-triazine-2,4-diamine], the plasma glucose ([1]; 180 minutes, imeglimin and metformin 100 mg/h/kg, phenformin 50 mg/h/kg i.v.) was 5.4 ± 0.4 mmol/L, the plasma glucose ([1]; i.v. perfusion 100 mg/h/kg, 60 minutes (basal 7.6±0.4)) was 6.5 ± 0.4 mmol/L and the “effect on plasma [HCO3−]” value ([1]; rat, in vivo) was “significantly decreased plasma [HCO3^−]vs. basal period but not vs. control group”. For the same molecule, the “effect on plasma lactate” value ([1]; rat, in vivo) was “did not significantly increase plasma lactate”, the “effect on plasma lactate level” value ([1]; rat, in vivo) was “did not change plasma lactate level” and the “plasma H+ concentration / metabolic acidosis signs” value ([1]; rat, in vivo) was “Metabolic acidosis signs with imeglimin treatment were not observed”. The plasma accumulation ([1]; rat, in vivo) was “plasma accumulation of metformin and imeglimin was observed”, the severe hypoglycemia ([1]; rat, in vivo) was “severe hypoglycemia was not observed” and the “decrease in plasma glucose” value ([1]; rats with mild or high ARF) was “significant and time-dependent”. For the same molecule, the “dose proportionality of exposures” value ([2]; 250 to 2000 mg range) was “less than dose proportional exposures”, the main excretion pathway ([2]; in vivo) was “renal elimination as the main excretion pathway” and the “TEAE leading to discontinuation” value ([3]; 500 mg (placebo 13.3%)) was 2.7%. For the same molecule, the “FPG LSM difference vs baseline” value ([3]; 500 mg bid) was 8.0 mg/dL, the “FPG LSM difference vs placebo” value ([3]; 500 mg bid) was -8.6 mg/dL and the “placebo-adjusted change in HbA1c” value ([3]; 500 mg bid, baseline HbA1c <8%) was −0.47%. The “placebo-adjusted change in HbA1c” value ([3]; 500 mg bid, baseline HbA1c ≥8%) was −0.58%, the “TEAE leading to discontinuation” value ([3]; 1000 mg (placebo 13.3%)) was 6.8% and the “FPG LSM difference vs baseline” value ([3]; 1000 mg bid) was -8.0 mg/dL. For the same molecule, the “FPG LSM difference vs placebo” value ([3]; 1000 mg bid) was -24.6 mg/dL, the “placebo-adjusted change in HbA1c” value ([3]; 1000 mg bid, baseline HbA1c <8%) was −0.93% and the “placebo-adjusted change in HbA1c” value ([3]; 1000 mg bid, baseline HbA1c ≥8%) was −0.90%. For the same molecule, the “responder rate (subjects reaching HbA1c≤7%)” value ([3]; 1000 mg bid) was 33.3%, the “TEAE leading to discontinuation” value ([3]; 1500 mg (placebo 13.3%)) was 6.7% and the “subjects requiring a rescue therapy due to poor glycemic control” value ([3]; 1500 mg bid (placebo 10.7%)) was “no subjects requiring rescue therapy”. The “FPG LSM difference vs baseline” value ([3]; 1500 mg bid) was -8.0 mg/dL, the “FPG LSM difference vs placebo” value ([3]; 1500 mg bid) was -24.6 mg/dL and the “placebo-adjusted change in HbA1c” value ([3]; 1500 mg bid, baseline HbA1c <8%) was −0.82%. For the same molecule, the “placebo-adjusted change in HbA1c” value ([3]; 1500 mg bid, baseline HbA1c ≥8%) was −1.2%, the “responder rate (subjects reaching HbA1c≤7%)” value ([3]; 1500 mg bid) was 32.9% and the “Decrease in FPG (placebo-adjusted)” value ([3]; 2 top doses of 1000 and 1500 mg bid) was 1.37 mmol/L. For the same molecule, the “SAE or AE leading to discontinuation” value ([3]; CKD3a subgroup, post-hoc analysis) was “No SAE or AE leading to discontinuation were observed”, the “FPG LSM Difference vs. Placebo, Week 24” value [3, 4] was -14.2 mg/dL and the “HbA1c LSM Difference vs. Placebo (SEM), Week 24” value [3, 4] was −0.60%. For the same molecule, the “Change in FPG from baseline, Week 24 LS Mean” value (from here on “Change in FPG from baseline”) [3, 5] was 5.8 mg/dL, the “Change in HbA1c from baseline, Week 24 LS Mean (SEM)” value (from here on “Change in HbA1c … (SEM)”) [3, 5] was −0.08 (0.109) % and the “HbA1c LSM Difference vs. Placebo (SEM), Week 24” value ([3]; CKD Stage 2 (eGFR = 60-90 mL/min/1.73 m^2), 500 mg BID, listed as Imeglimin) was −0.60 (0.154) %. For the same molecule, the “FPG LSM Difference vs. Placebo, Week 24” value [3, 6] was -26.5 mg/dL, the “HbA1c LSM Difference vs. Placebo (SEM), Week 24” value [3, 6] was −1.03% and the “Change in FPG from baseline” value [3, 7] was -6.5 mg/dL. The “Change in HbA1c … (SEM)” value [3, 7] was −0.51 (0.110) %, the “HbA1c LSM Difference vs. Placebo (SEM), Week 24” value ([3]; CKD Stage 2 (eGFR = 60-90 mL/min/1.73 m^2), 1000 mg BID, listed as Imeglimin) was −1.03 (0.155) % and the “FPG LSM Difference vs. Placebo, Week 24” value [3, 8] was -33.0 mg/dL. For the same molecule, the “HbA1c LSM Difference vs. Placebo (SEM), Week 24” value [3, 8] was −1.11%, the “Change in FPG from baseline” value [3, 9] was -12.9 mg/dL and the “Change in HbA1c … (SEM)” value [3, 9] was −0.58 (0.117) %. For the same molecule, the “HbA1c LSM Difference vs. Placebo (SEM), Week 24” value ([3]; CKD Stage 2 (eGFR = 60-90 mL/min/1.73 m^2), 1500 mg BID, listed as Imeglimin) was −1.11 (0.160) %, the “FPG LSM Difference vs. Placebo, Week 24” value [3, 10] was -6.7 mg/dL and the “HbA1c LSM Difference vs. Placebo (SEM), Week 24” value [3, 10] was −0.54%. The “Change in FPG from baseline” value [3, 11] was 1.7 mg/dL, the “Change in HbA1c … (SEM)” value [3, 11] was −0.32 (0.240) % and the “HbA1c LSM Difference vs. Placebo (SEM), Week 24” value ([3]; CKD Stage 3a (eGFR < 60 mL/min/1.73 m^2), 500 mg BID, listed as Imeglimin) was −0.54 (0.336) %. The “FPG LSM Difference vs. Placebo, Week 24” value [3, 12] was -11.2 mg/dL, the “HbA1c LSM Difference vs. Placebo (SEM), Week 24” value [3, 12] was −0.44% and the “Change in FPG from baseline” value [3, 13] was -2.8 mg/dL. For the same molecule, the “Change in HbA1c … (SEM)” value [3, 13] was −0.22 (0.282) %, the “HbA1c LSM Difference vs. Placebo (SEM), Week 24” value ([3]; CKD Stage 3a (eGFR < 60 mL/min/1.73 m^2), 1000 mg BID, listed as Imeglimin) was −0.44 (0.368) % and the “FPG LSM Difference vs. Placebo, Week 24” value [3, 14] was -20.6 mg/dL. For the same molecule, the “HbA1c LSM Difference vs. Placebo (SEM), Week 24” value [3, 14] was −1.07%, the “Change in FPG from baseline” value [3, 15] was -12.2 mg/dL and the “Change in HbA1c … (SEM)” value [3, 15] was −0.86 (0.265) %. The “HbA1c LSM Difference vs. Placebo (SEM), Week 24” value ([3]; CKD Stage 3a (eGFR < 60 mL/min/1.73 m^2), 1500 mg BID, listed as Imeglimin) was −1.07 (0.353) %, the “incidence of subjects presenting with Treatment Emergent (TE) AE” value ([3]; Imeglimin 1000 mg) was 62.2% and the “incidence of subjects presenting with any adverse event (AE)” value ([3]; Imeglimin 1000 mg) was 73%. For the same molecule, the “incidence of subjects presenting with Treatment Emergent (TE) AE” value ([3]; Imeglimin 1500 mg) was 73.3%, the “incidence of subjects presenting with any adverse event (AE)” value ([3]; Imeglimin 1500 mg) was 77.3% and the “FPG LSM Difference vs. Placebo, Week 24” value [3, 16] was 14.5 mg/dL. The “HbA1c LSM Difference vs. Placebo (SEM), Week 24” value [3, 16] was −0.01 (0.290) %, the “Change in FPG from baseline” value [3, 17] was 15.9 mg/dL and the “Change in HbA1c … (SEM)” value [3, 17] was 0.04 (0.221) %. For the same molecule, the “FPG LSM Difference vs. Placebo, Week 24” value [3, 18] was -28.1 mg/dL, the “HbA1c LSM Difference vs. Placebo (SEM), Week 24” value [3, 18] was −0.85 (0.283) % and the “Change in FPG from baseline” value [3, 19] was -26.6 mg/dL. The “Change in HbA1c … (SEM)” value [3, 19] was −0.8 (0.213) %, the “FPG LSM Difference vs. Placebo, Week 24” value [3, 20] was 5.1 mg/dL and the “HbA1c LSM Difference vs. Placebo (SEM), Week 24” value [3, 20] was −0.47 (0.260) %. The “Change in FPG from baseline” value [3, 21] was 6.6 mg/dL, the “Change in HbA1c … (SEM)” value [3, 21] was −0.42 (0.175) % and the “incidence of TEAE considered as related to the study drug” value (from here on “incidence of TEAE considered as related”) ([3]; imeglimin 500 mg (placebo 8%)) was 5.3%. The “incidence of TEAE from the gastrointestinal disorder SOC” value ([3]; imeglimin 500 mg (placebo 14.7%)) was 14.7%, the “serious TEAEs” value ([3]; imeglimin 500 mg bid) was “none” and the “incidence of TEAE considered as related” value ([3]; imeglimin 1000 mg (placebo 8%)) was 5.4%. The “incidence of TEAE from the gastrointestinal disorder SOC” value ([3]; imeglimin 1000 mg (placebo 14.7%)) was 18.9%, the “serious TEAEs” value ([3]; imeglimin 1000 mg bid) was 5.4% and the “incidence of TEAE considered as related” value ([3]; imeglimin 1500 mg (placebo 8%)) was 24%. For the same molecule, the “incidence of TEAE from the gastrointestinal disorder SOC” value ([3]; imeglimin 1500 mg (placebo 14.7%)) was 32% and the “serious TEAEs” value ([3]; imeglimin 1500 mg bid) was 1.3%.
